Data on 18 compounds can be found in patent US6630488B1, “Quinolizinones as integrin inhibitors” (Biochem Pharma, Inc., priority 1998, dated 2003).

Assay [1] concerns the target T1, placental αvβ3 (Homo sapiens, UniProt P05106+P06756).
T1 construct: purified active GP IIb-IIIa (Calbiochem) or olacental αvβ3 at 0.5 μg/ml; from tissue; host or cells: placenta
The experiment in a line: Fibrinogen binding to immobilized αvβ3. The conditions noted are these: biotinylated-fibrinogen 10 nM, immobilized placental αvβ3; read-out: IC50 values for the fibrinogen binding assay αvβ3. The procedure:
(§1) Nonbound fibrinogen was removed by five washes with binding buffer. Avidin conjugated to alkaline phosphatase (Sigma), diluted in binding buffer, was added and incubated for two hours at 37° C. The plates were washed five times with binding buffer, and after addition of the substrate PNPP (Pierce), the enzyme activity was measured by the absorbance at 405 nm.

In assay [2] the target is T2, GP IIb-IIIa (αIIbβ3) (Homo sapiens, UniProt P05106+P08514).
T2 construct: purchased Calbiochem
T2 sequence (P08514 32-887 limits assumed): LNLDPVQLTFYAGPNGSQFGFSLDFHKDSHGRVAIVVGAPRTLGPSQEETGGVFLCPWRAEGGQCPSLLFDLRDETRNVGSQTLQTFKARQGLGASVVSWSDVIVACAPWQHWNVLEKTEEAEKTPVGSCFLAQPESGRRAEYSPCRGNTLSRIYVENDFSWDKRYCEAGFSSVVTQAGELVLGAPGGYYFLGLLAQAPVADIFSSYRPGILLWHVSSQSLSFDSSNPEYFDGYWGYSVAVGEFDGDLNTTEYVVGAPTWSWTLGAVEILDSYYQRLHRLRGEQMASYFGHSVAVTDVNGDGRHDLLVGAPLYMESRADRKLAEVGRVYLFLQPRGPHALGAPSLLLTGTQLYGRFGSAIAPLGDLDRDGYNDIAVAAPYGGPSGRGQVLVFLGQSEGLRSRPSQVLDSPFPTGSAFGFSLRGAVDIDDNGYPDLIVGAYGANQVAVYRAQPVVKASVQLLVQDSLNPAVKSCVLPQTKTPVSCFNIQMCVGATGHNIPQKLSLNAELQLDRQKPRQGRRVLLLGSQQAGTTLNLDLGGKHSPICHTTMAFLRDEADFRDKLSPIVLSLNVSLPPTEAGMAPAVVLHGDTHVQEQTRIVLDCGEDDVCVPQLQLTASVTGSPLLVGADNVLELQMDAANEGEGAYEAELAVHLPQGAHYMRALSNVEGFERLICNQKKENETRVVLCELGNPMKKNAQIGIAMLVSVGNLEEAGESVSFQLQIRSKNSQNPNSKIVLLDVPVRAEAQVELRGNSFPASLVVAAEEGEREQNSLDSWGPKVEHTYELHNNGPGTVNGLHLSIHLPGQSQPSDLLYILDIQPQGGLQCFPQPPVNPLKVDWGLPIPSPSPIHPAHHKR
T2 sequence (P08514 891-1039 partner limits assumed): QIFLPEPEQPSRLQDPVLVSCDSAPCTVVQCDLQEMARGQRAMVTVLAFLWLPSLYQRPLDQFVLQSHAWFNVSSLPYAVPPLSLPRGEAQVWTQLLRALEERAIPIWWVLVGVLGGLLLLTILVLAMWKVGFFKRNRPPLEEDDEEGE
T2 sequence (P05106 27-788): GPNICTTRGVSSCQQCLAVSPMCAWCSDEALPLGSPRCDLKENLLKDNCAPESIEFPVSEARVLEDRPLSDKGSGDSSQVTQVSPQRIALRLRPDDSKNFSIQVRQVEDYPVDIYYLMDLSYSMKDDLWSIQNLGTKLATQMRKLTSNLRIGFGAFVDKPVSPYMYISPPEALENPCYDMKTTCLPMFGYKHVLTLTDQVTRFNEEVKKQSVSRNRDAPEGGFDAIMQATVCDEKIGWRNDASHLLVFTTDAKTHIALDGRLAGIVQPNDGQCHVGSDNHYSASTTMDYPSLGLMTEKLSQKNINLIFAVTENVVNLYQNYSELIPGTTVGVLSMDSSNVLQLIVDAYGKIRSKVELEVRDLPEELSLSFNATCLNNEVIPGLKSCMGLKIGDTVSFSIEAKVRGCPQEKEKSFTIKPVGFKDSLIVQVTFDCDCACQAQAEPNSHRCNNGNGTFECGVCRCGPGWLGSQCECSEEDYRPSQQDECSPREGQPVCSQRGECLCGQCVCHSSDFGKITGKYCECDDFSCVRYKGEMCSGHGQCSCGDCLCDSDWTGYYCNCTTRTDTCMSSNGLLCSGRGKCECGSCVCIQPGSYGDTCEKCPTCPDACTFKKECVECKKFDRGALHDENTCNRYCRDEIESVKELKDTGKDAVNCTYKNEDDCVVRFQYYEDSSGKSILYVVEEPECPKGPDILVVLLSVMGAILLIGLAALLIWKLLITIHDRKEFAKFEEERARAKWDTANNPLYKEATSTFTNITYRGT
The experiment in a line: Fibrinogen binding to immobilized GP IIb-IIIa (αIIbβ3). The conditions noted are these: biotinylated-fibrinogen 10 nM, immobilized GP IIb-IIIa; read-out: IC50 values for the fibrinogen binding assay αIIbβ3. As for the experimental part: as §1

Assay [3] relates to Chick Chorioallantoic Membrane (CAM) capillary formation. The experiment in a line: Chick chorioallantoic membrane (CAM) mesh assay. The class given is in vivo, chicken. The following applies: Day 12, 24 hr treatment. As for the experimental part: Fertilized white leghorn chicken eggs (SPAFAS Inc., Norwich, Conn.) were received at day 0 and incubated for 3 days at 37 C with constant humidity. On day 3, eggs were rinsed with 70% ethanol and opened into 100 mm^2 tissue culture coated Petri dishes under aseptic conditions. The embryos were then returned to a humidified 38 C incubator for 7-9 additional days.
Vitrogen (Collagen Biomaterials, Palo Alto, Calif.) at a final concentration of 0.73 mg/ml and Matrigel (Becton Dickinson, Bedford, Mass.) at a final concentration of 10 mg/ml was directly pipetted onto Nylon meshes with 250 μm^2 openings which were cut into 4 mm×4 mm squares and autoclaved. Polymerization of meshes were under aseptic conditions, on bacteriological Petri dishes. The polymerization conditions for each substrate were identical; after mixing with or without […] of VPF/VEGF165 (Peprotech, Rocky Hill, N.J.) and/or compounds of interest, 40 μl were pipetted onto each mesh in a bacteriological Petri dish.
The Petri dish was placed in a humidified 37 C incubator with 5% CO2 for 30 minutes to allow polymerization followed by an incubation at 4 C for 2 hours.
In a tissue culture enclosure, meshes were placed onto the periphery of the CAM of a day 12-14 embryo, excluding areas containing major vessels. The embryos were then returned to the humidified 38 C incubator with 3% CO2 for 24 to 48 additional hours.
Embryos were removed from the incubator and meshes were viewed under a dissecting microscope for gross evaluation. Injection of 400 μl FITC dextran, MW 2,000,000 (Sigma, St. Louis, Mo.) through glass microcapillary tubes by infusion into the umbilical vein was performed at a rate of 200 μl per minute. The FITC dextran was allowed to circulate for 5 minutes and 3.7% formaldehyde in PBS was applied directly on each mesh. The embryos were then incubated at 4 C for 5 minutes and the meshes were dissected off the CAM and fixed in 3.7% formaldehyde for 10 minutes to overnight.
After fixation, meshes were mounted on slides with 90% glycerol in PBS and visualized on an inverted fluorescence microscope. A Nikon Diaphot with a Sony DXC-151A camera attached to the side port was used for capture of images and analysis was with the NIH Image 1.61 software program. For each mesh, 5 random staggered images (approximately 600 μm each) were captured. The areas of high intensity were highlighted and measured. Results are expressed as ability to suppress capillary formation after subtraction from negative control. Values were calculated as i inhibition, considering 100% the capillary density achieved by VPF in the presence of vitrogen alone minus the background levels in the absence of VPF. Negative values indicate angiogenic stimulation above the VPF positive control.

As a reminder, the IC50 is the concentration that inhibits the measured activity by half.

Each structure is given as a SMILES string. Structures can show the parent of a compound that is named as a salt.

T1 sequence (P06756 31-889 limits assumed): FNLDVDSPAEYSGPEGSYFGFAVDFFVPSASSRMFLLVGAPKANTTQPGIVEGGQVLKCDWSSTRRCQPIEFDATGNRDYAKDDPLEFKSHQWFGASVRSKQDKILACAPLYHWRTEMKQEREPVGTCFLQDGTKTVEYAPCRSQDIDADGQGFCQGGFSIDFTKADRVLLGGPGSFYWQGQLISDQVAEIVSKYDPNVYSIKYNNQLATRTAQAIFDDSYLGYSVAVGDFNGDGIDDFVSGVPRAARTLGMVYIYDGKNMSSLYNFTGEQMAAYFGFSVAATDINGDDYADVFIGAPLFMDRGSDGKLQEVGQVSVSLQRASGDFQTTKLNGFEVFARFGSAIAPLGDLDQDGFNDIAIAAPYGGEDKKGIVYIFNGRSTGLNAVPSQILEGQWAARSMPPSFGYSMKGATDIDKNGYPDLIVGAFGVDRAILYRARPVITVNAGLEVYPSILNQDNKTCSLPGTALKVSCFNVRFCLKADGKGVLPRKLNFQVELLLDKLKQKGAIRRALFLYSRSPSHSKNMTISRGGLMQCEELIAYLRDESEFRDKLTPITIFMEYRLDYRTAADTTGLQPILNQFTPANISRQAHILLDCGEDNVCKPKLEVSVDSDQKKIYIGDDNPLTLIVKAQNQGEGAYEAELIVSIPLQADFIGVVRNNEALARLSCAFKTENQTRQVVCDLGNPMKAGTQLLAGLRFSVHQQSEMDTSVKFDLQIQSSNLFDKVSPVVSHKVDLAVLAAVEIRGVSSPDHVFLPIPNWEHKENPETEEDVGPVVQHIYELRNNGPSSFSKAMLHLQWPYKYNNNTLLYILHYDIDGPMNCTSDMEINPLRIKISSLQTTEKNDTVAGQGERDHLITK
T1 sequence (P06756 891-1048 partner limits assumed): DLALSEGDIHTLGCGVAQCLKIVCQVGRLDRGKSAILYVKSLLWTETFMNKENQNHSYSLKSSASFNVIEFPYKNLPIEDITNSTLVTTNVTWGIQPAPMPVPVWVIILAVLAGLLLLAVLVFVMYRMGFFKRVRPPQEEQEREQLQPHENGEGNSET
T1 sequence (P05106 27-788): as the sequence (P05106 27-788) above

`O=C(NCc1ccccc1)NCc1ccc2cc(C(=O)NC[C@H](NS(=O)(=O)c3ccccc3)C(=O)O)cc(=O)n2c1` [Compound XLVII, (S)-2-Benzenesulfonylamino-3-{[7-(3-benzyl-ureidomethyl)-4-oxo-4H-quinolizine-2-carbonyl]-amino}-propionic acid]: the concentration for half-maximal inhibition (IC50) came out at 0.006 µM in assay [1] and 4850 nM in assay [2].
Regarding `CNC(=O)NCCCOc1ccc2cc(C(=O)NC[C@H](NS(=O)(=O)c3ccccc3)C(=O)O)cc(=O)n2c1` [Compound XII, (S)-2-Benzenesulfonylamino-3-({7-[3-(3-methyl-ureido)-propoxy]-4-oxo-4H-quinolizine-2-carbonyl}-amino)-propionic Acid], the IC50 in assay [1] came to 1.1 µM; in assay [2] it was 790 nM.
On the same counts, the results for `NCCCOc1ccc2ccc(NC(=O)NC[C@H](NS(=O)(=O)c3ccccc3)C(=O)O)c(=O)n2c1` [Compound VII, (S)-3-{3-[7-(3-Amino-propoxy)-4-oxo-4H-quinolizin-3-yl]-ureido}-2-Benzenesulfonylamino-propionic Acid] are 92 µM and 1.8 nM.
On the same counts, the results for `O=C(O)CC(NC(=O)c1ccc2ccc(OCCCNC(=O)NCc3ccccc3)cn2c1=O)c1ccccc1` (racemic) [Compound X] are 67 µM and 29000 nM.
On the same counts, the results for `O=C(NCc1ccc2cc(C(=O)NC[C@H](NS(=O)(=O)c3ccccc3)C(=O)O)cc(=O)n2c1)OCc1ccccc1` [Compound XLV, (S)-2-Benzenesulfonylamino-3-([(7-benzyloxycarbonylamino-methyl)-4-oxo-4H-quinolizine-2-carbonyl]-amino)-propionic acid] are 0.91 µM and 850 nM.
As for `CN([C@@H](CNC(=O)c1cc(=O)n2cc(OCCCN)ccc2c1)C(=O)O)S(=O)(=O)c1ccccc1` [Compound XXIII, (S)-3-{[7-(3-Amino-propoxy)-4-oxo-4H-quinolizine-2-carbonyl]-amino}-2-(benzenesulfonyl-methyl-amino)-propionic Acid Trifluoroacetic Acid Salt], the values for the IC50 in assay [1] and in assay [2] were greater than 100 µM and 820 nM, respectively.
Turning to `NCCOc1ccc2cc(C(=O)NC[C@H](NS(=O)(=O)c3ccccc3)C(=O)O)cc(=O)n2c1` [Compound XIX, (S)-3-{[7-(2-Amino-ethoxy)-4-oxo-4H-quinolizine-2-carbonyl]-amino}-2-benzenesulfonylamino-propionic Acid Trifluoroacetic Acid Salt], the IC50 in assay [1] was determined as 2 µM; in assay [2], 29 nM.
For `NCCCOc1ccc2cc(C(=O)NCCC(=O)O)cc(=O)n2c1` [Compound XVI, 3-{[7-(3-Amino-propoxy)-4-oxo-4H-quinolizine-2-carbonyl]-amino}-propionic Acid Trifluoroacetic Acid Salt] the same measures were greater than 100 µM and 1500 nM.
On the same counts, the results for `O=C(O)CC(NC(=O)c1ccc2ccc(OCCCNC(=O)OCc3ccccc3)cn2c1=O)c1ccccc1` (racemic) [Compound XI, (+/−)-3-{[7-(3-Benzyloxycarbonylamino-propoxy)-4-oxo-4H-quinolizine-3-carbonyl]-amino}-3-phenyl-propionic Acid] are 20 µM and 20000 nM.
As to `N=C(N)N1CCN(c2ccn3c(=O)c(C(=O)NC(CC(=O)O)c4ccccc4)ccc3c2)CC1.O=C(O)C(F)(F)F` (racemic) [Compound XL, (+/−)-3-{[8-(4-Carbamimidoyl-piperazin-1-yl)-4-oxo-4H-quinolizine-3-carbonyl]-amino}-3-phenyl-propionic Acid Trifluoroacetic Acid Salt], the concentration for half-maximal inhibition (IC50) in assay [1] worked out at 1.9 µM. The “CAM inhibition of capillary formation” value in assay [3] (3 μg/mesh, +VPF) is −2%; in assay [3] (3 μg/mesh, −VPF) it was 4%; in assay [3] (17 μg/mesh, +VPF), 7%; in assay [3] (17 μg/mesh, −VPF) it was 10%; in assay [3] (33 μg/mesh, +VPF), 11%; in assay [3] (33 μg/mesh, −VPF), 9%.
For the compound `NCc1ccc2cc(C(=O)NC[C@H](NS(=O)(=O)c3ccccc3)C(=O)O)cc(=O)n2c1` (stereo in doubt) [Compound XXVI, 3-[(7-Aminomethyl-4-oxo-4H-quinolizine-2-carbonyl)-amino]-2-benzenesulfonylamino-propionic Acid Trifluoroacetic Acid Salt], the IC50 stood at 0.019 µM in assay [1] and 440 nM in assay [2].
Take `O=C(O)CC(NC(=O)c1ccc2cc(NCCSC(=S)Nc3cccnc3)ccn2c1=O)c1ccccc1` (racemic) [Compound XXXVIII, (+/−)-3-({4-Oxo-8-[2-(pyridin-3-ylthiocarbamoylsulfanyl)-ethylamino]4H-quinolizine-3-carbonyl}-amino)-3-phenyl-propionic acid trifluoroacetic acid salt]: the IC50 in assay [1] is 13 µM; in assay [2] it was 45 nM.
For `NCCCOc1ccc2cc(C(=O)NC[C@H](NS(=O)(=O)c3ccccc3)C(=O)O)cc(=O)n2c1` [Compound XIV, (S)-3-{[7-(3-Amino-propoxy)-4-oxo-4H-quinolizine-2-carbonyl]-amino}-2-benzenesulfonylamino-propionic Acid Trifluoroacetic Acid Salt] the same measures were 17 µM and 0.38 nM.
On the same counts, the results for `N=C(N)NCc1ccc2cc(C(=O)NC(CC(=O)O)c3cc(Cl)cc(Cl)c3)cc(=O)n2c1` (racemic) [Compound XLII, (+/−)-3-(3,5-Dichlorophenyl)-3-((7-guanidinomethyl-4-oxo-4H-quinolizine-2-carbonyl)-amino]-propionic acid trifluoroacetic acid salt] are 4 µM and 23000 nM.
For `NCCCOc1ccc2cc(C(=O)NC[C@H](Nc3ncccn3)C(=O)O)cc(=O)n2c1` (stereo in doubt) [Compound XXI, 3-{[7-(3-Amino-propoxy)-4-oxo-4H-quinolizine-2 carbonyl]-amino}-2-(pyrimidin-2-ylamino)-propionic Acid Hydrochloride] the same measures were 14 µM and 74 nM.
Consider `O=C(NC[C@H](NS(=O)(=O)c1ccccc1)C(=O)O)Nc1ccc2ccc(OCCCNC(=O)OCc3ccccc3)cn2c1=O` [Compound VI, (S)-2-Benzenesulfonylamino-3-{3-[7-(3-benzyloxycarbonylamino-propoxy)-4-oxo-4H-quinolizine-3-yl]-ureido}-propionic Acid], for which the results for the IC50 in assay [1] and in assay [2] were greater than 100 µM and 1800 nM, respectively.
For `O=C(NC[C@H](NS(=O)(=O)c1ccccc1)C(=O)O)c1cc(=O)n2cc(CNc3ncccn3)ccc2c1` [Compound XLVI, (S)-2-Benzenesulfonylamino-3-([4-oxo-7-(pyrimidin-2-ylaminomethyl)-4H-quinolizine-2-carbonyl]-amino)-propionic acid trifluoroacetic acid salt] the same measures were 0.29 µM and 3500 nM.
`N=C(N)NCc1ccc2cc(C(=O)NCC(Nc3ncccn3)C(=O)O)cc(=O)n2c1` (racemic) [Compound XLIV, (+/−)-3-[(7-guanidinomethyl-4-oxo-4H-quinolizine-2-carbonyl)-amino]-2-(pyrimidin-2-ylamino)-propionic acid bis-trifluoroacetic acid salt]: the values for the concentration for half-maximal inhibition (IC50) in assay [1] and in assay [2] were 0.03 µM and 6000 nM, respectively.
